Article PMC2933276 (Nature structural & molecular biology, 2010)

Columns and labels:
[1] = target: T1, S. pombe Dcp2 regulatory domain (residues 1-94) (Schizosaccharomyces pombe, UniProt O13828); assay: […]-HSQC NMR titration; assay type: binding
T1 sequence (O13828 1-94): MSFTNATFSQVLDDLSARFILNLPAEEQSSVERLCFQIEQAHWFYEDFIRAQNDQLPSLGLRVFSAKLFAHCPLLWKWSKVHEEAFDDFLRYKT

[2] = target: T2, S. pombe Dcp2 catalytic domain (residues 95-243) (Schizosaccharomyces pombe, UniProt O13828); assay: […]-HSQC NMR titration; assay type: binding
T2 sequence (O13828 95-243): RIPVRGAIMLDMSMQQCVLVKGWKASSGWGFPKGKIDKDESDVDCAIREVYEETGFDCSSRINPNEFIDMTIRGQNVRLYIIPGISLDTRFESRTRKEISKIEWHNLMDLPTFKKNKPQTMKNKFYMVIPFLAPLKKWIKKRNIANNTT

[3] = target: T3, S. pombe Dcp1-Dcp2 complex (Dcp2 1-243, Dcp1 1-127; D1D2) (Schizosaccharomyces pombe, UniProt O13828); assay: SAXS, ligand-induced compaction; assay type: binding; conditions: 10 mM m7GpppA; pH 7.0, 150 mM NaCl, 50 mM HEPES, 2 mM DTT
T3 sequence (O13828 1-243): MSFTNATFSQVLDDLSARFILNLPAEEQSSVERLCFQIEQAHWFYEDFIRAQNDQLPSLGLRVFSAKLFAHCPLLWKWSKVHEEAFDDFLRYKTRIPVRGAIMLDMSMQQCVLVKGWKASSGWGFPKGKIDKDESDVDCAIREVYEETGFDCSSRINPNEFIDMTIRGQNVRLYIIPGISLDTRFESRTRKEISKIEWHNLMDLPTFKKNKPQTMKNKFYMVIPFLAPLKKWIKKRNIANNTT
T3 sequence (Q9P805 1-127 partner): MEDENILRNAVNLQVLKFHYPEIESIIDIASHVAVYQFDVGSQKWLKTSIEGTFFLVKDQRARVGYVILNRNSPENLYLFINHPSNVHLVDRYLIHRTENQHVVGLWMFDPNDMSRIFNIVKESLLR

[4] = target: T4, S. pombe Dcp2 (spDcp2) 1–243 (S. pombe, UniProt O13828 1-243); assay: SEC
T4 sequence: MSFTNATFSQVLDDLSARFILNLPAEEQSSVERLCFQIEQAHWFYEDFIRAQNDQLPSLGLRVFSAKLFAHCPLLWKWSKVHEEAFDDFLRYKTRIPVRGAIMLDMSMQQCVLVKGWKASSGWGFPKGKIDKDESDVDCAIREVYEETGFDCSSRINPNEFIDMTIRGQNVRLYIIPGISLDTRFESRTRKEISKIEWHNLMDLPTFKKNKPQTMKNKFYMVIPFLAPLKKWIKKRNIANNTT

S. pombe Dcp2 1–243 W43A = S. pombe Dcp2 1–243 W43A (S. pombe, UniProt O13828 1-243, W43A); assay: SEC
[5] = target: S. pombe Dcp2 1–243 R167Q (S. pombe, UniProt O13828 1-243, R167Q); assay: SEC

With Nc1nc2c(ncn2[C@@H]2O[C@H](COP(=O)(O)OP(=O)(O)O)[C@@H](O)[C@H]2O)c(=O)[nH]1 [GDP] the Kd [1] was ~40 mM.

With C[n+]1cn([C@@H]2O[C@H](COP(=O)(O)OP(=O)(O)O)[C@@H](O)[C@H]2O)c2nc(N)[nH]c(=O)c21 [m^7GDP] the Kd [2] was 12 mM and the Kd [1] was ~12 mM.

In the case of C[n+]1cn([C@@H]2O[C@H](COP(=O)(O)OP(=O)(O)OP(=O)(O)OC[C@H]3O[C@@H](n4cnc5c(N)ncnc54)[C@H](O)[C@@H]3O)[C@@H](O)[C@H]2O)c2nc(N)[nH]c(=O)c21 [m^7GpppA], the “SAXS, ligand-induced compaction” value [3] is reported as “reveals a compaction in the presence of cap-analog m^7GpppA that is small but reproducible”.

B1: S. pombe Dcp1 1–127 (natural protein)
chain: MEDENILRNAVNLQVLKFHYPEIESIIDIASHVAVYQFDVGSQKWLKTSIEGTFFLVKDQRARVGYVILNRNSPENLYLFINHPSNVHLVDRYLIHRTENQHVVGLWMFDPNDMSRIFNIVKESLLR
B1: binds [4]; binds (S. pombe Dcp2 1–243 W43A); binds [5].
